From publication PMC10879279 (Frontiers in Behavioral Neuroscience, 2024)
“Also recorded” adds a separate entry of the source. Where two headings read alike, the source gives them in different places.

Assays:
[1] = tested on: human mGluR5; assay: Calcium flux imaging, CHO-mGluR5 cells; format: cell-based
Excerpt: mGluR5 activation leads to Ca^2+ influx that could be blocked by adding a specific antagonists or NAMs ([Kettunen et al., 2002]; [Beggiato et al., 2018]). Elevation of intracellular Ca^2+ levels via the phospholipase C pathway is typical for all Gq-coupled GPCRs ([Liu et al., 2008]) and can be detected using a penetrating Ca^2+ indicator.
The CHO cell line stably expressing human mGluR5 was generated using T-Rex System (Thermo Fisher Scientific Inc., United States) according to the manufacturer’s instructions. Briefly, complementary DNA (cDNA) encoding human mGluR5 was subcloned into the pcDNA4/TO inducible expression vector, which was transfected into CHO cells carrying the pcDNA6/TR regulatory vector that expresses the tetracycline repressor. After 2 weeks of selection using 5 μg/mL blasticidin (Thermo Fisher Scientific Inc.) and 250 μg/mL zeocin (Thermo Fisher Scientific Inc.), pools of cells were screened for the expression of mGluR5 in the agonist-induced Ca^2+ uptake assay. Positive cells were expanded and used. mGluR5 expression was induced by adding up to 1 μg/mL of tetracycline (Thermo Fisher Scientific Inc.) 16 h before testing.
Fluorescent assays were performed using NOVOstar (BMG LABTECH, Germany). CHO-mGluR5 cells were seeded into black-walled, clear-bottomed 96-well plates at a density of 75,000 cells per well (complete media without antibiotics and containing 1 μg/mL of tetracycline to induce receptor expression) and were cultured overnight at 37°C. The cells were then loaded with the cytoplasmic calcium indicator Fluo-4 AM using the Fluo-4 Direct™ Calcium Assay Kits (Thermo Fisher Scientific Inc.) and incubated in the dark at 37°C for 60 min, and then at 25°C for 60 min. The buffer alone (control) or the buffer containing different concentrations of LCGM-10 (0.02, 2, 20, and 200 μM), LCGM-15 (0.02, 2, 20, and 200 μM), or 2-methyl-6-(phenylethynyl) pyridine ([MPEP] 0.1, 1, 10, and 100 μM; Sigma-Aldrich, United States) were added to the cells (in six replicate wells). […] The measurements were performed at pH 7.4 and 37°C.

[2] = tested on: Wistar rats; assay: Home cage spontaneous locomotor activity (SLA); format: in vivo, rat (Wistar)
Experimental: Wildtype D. rerio (128 fish, shortfin phenotype, 6–8 months of age, male to female ratio 50: 50) were kept in a ZebTEC recirculating system (Tecniplast S.p.a, Buguggiate, Italy), and housed under a 14/10-h photoperiod (lights on at 08: 00 and off at 22: 00). The system parameters were maintained automatically with water set at 28°C, pH 6.8–7.5, […], and constant aeration. Feeding was carried out twice a day with special food for fish (Special Diet Services, Scientific Fish Food, SDS 300–400). In total, 30 male Sprague Dawley rats were used in the behavioral screening study, and 53 male Wistar rats in the locomotion study (N = 23) and the delay discounting test (N = 30). The animals were housed under constant environmental conditions (12-h photoperiod at 22 ± 2°C) with ad libitum access to food and water. All animal experiments were conducted in accordance with the European Directive 2010/63/EU of the European Parliament (Council of 22 September 2010 on the protection of animals used for scientific purposes) and were approved by the local Bioethics Commissions. All manipulations with animals were carried out at the end of the 14-day adaptation period.
We administered LCGM peptides intranasally. Peptides were dissolved in saline at a concentration appropriate for the dosage. For administration, the rat was held in a horizontal position, with its head slightly tilted back. Then, using an automatic laboratory pipette, no more than 10 μL of the peptide solution was carefully introduced into each nostril of the rat. After visually confirming that the entire volume of liquid entered the animal’s nose, the rats were returned to their home cage. […] This route of administration has several advantages for short peptides, such as rapid systemic drug absorption and the potential to bypass the blood–brain barrier more effectively and access the central nervous system ([Pires et al., 2009]; [Lochhead and Thorne, 2012]). For patients, this method is relatively noninvasive and limits the side effects associated with peripheral administration of substances ([Meredith et al., 2015]).
Spontaneous locomotor activity (SLA) was measured using the Activiscop setup (NewBehavior Inc., Switzerland) ([Madani et al., 2003]). The animals were kept in home cages with free access to food and water. Motor activity was recorded using an infrared sensor located above each cage. The experiment lasted 2 days: On the first day, baseline activity was recorded, and then Wistar rats received LCGM-10 (5 mg/kg in saline, intranasal) and caffeine (30 mg/kg in saline, intraperitoneal) and were recorded for another 24 h. The days were divided into day 1 (12: 00–18: 59), night (19: 00–06: 59), and day 2 (07: 00–11: 59). The results are presented as the number of behavioral acts per minute (arbitrary units [a.u.]) for each animal. The experiment was performed by the Serbsky National Medical Research Center for Psychiatry and Narcology on a contract basis.

[3] = tested on: mice; design: method as in Kobayashi et al., 2020; settings: caffeine 25 mg/kg, ref Kobayashi et al., 2020; cited from earlier work
[4] = tested on: zebrafish; design: method as in Maximino et al., 2014; settings: similar to LCGM-10 and LCGM-15, ref Maximino et al., 2014, cited from earlier work
[5] = tested on: ADHD patients; settings: cited from earlier work; for effect size of non-stimulants: medium range, smaller than stimulants, ref Cortese et al., 2018
Excerpt: To sum up, the development of new medications for disorders with an excessive impulsivity as a major component is of high interest for both academy and industry. Addictions, including substance use disorder and gambling, faces the unmet need for novel medicines ([Rash et al., 2016]). In case of ADHD there is also a need for new medications with novel mechanisms of action since currently approved drugs show a non-response or lack efficacy in a significant number of patients ([Mechler et al., 2022]). Routinely used stimulant methylphenidate is efficient in up to 70% of cases ([Bodey, 2011]), and ...

[6] = tested on: mGluR4; assay: Luciferase reporter assay, mGluR4; format: cell-based; settings: L-AP4 1 µM; (−)-PHCCC 40 µM; HEK293, N = 3
Experimental: (§1) Figure S5. The mGluR1- and mGliR4-luciferase reporter assay results. HEK293 cells transfected with genetic reporter systems were treated with DHPG (10 µM) or DHPG (10 µM) + (−)-PHCCC (40 µM) in the case of mGluR1 and with L-AP4 (1 µM) or L-AP4 (1 µM) + (−)-PHCCC (40 µM) in the case of mGluR4. LCGM-10 was administered at a dose of 20 and 200 µM. […] The data are presented as the mean ± standard deviation for three biological replicates (N=3 in each group). * P < 0.01 versus the transfected control + control agonist.

[7] = tested on: mGluR1; assay: Luciferase reporter assay, mGluR1; format: cell-based; settings: DHPG 10 µM; (−)-PHCCC 40 µM; HEK293, N = 3
Experimental: as §1

[8] = tested on: mGluR4; settings: ref Mathiesen et al., 2003; Dalton et al., 2017; cited from earlier work
[9] = tested on: mGluR5; assay: Luciferase reporter assay, mGluR5; settings: transfected control cells; for antagonist effect on mGluR5 activity (in words): SIB 1757 10 μM + CHPG 1 mM
Experimental: Ultimately, a chemiluminescent signal is produced by the promoter-driven reporter expression that is directly proportional to activation or inhibition of a specific GPCR in the cells ([Unal, 2019]).
Briefly, the HEK293 cell line was transfected with three types of plasmids using polyethylenimine (PEI, 408727, Sigma-Aldrich, United States) 24 h prior to agonist application. Plasmid 1 encodes the GRM5–tTA fusion protein. The linker between mGluR5 and tTA is sensitive to TEV protease.^1 In case of testing the activity of LCGM-10 peptide toward mGluR1 and mGluR4, we applied the plasmids encoding GRM1-tTA^2 and GRM4-tTA^3 fusion proteins, respectively. Plasmid 2 encodes β-arrestin2–TEV protease fusion protein.^4 Plasmid 3 encodes the luciferase tTA reporter.^5 Transfected cells were treated with agonist/antagonist and incubated overnight (16 h). Antagonists were introduced 10 min prior to agonists. […] The luciferase test was performed using Promega™ Luciferase Assay Systems Kit (PR-E1500, Promega, United States) according to the manufacturer’s protocol.
Statistical analyses were performed using GraphPad Prism 9.5 (GraphPad Software, United States). The in vitro luciferase reporter assay was performed in three biological replicates and analyzed with two-way analysis of variance with the post hoc Bonferroni multiple comparison test. […] Differences between groups were considered significant at p < 0.05.

[10] = tested on: rodents; settings: ref Guimaraes et al., 2015, cited from earlier work
Excerpt: Therefore, we evaluated the potential of LCGM-10 as a therapeutic in male rats submitted to the OF and EPM. […] The importance of mGluR5 for modulating motor behavior has been reported in pharmacological ([Mcgeehan et al., 2004]; [Guimaraes et al., 2015]) as well as knockout ([Gray et al., 2009]; [Jew et al., 2013]; [Ribeiro et al., 2014]) studies in rodents, with so ...

[11] = tested on: zebrafish; settings: ref Malyshev et al., 2021; cited from earlier work
Excerpt: We carried out the two most common tests to evaluate the fish response to the stressful conditions of novelty (NTT) and bright light (LDB). Figure 1 represents the summary data of the effects of the LCGM peptides on the NTT and LDB results relative to each group control, expressed as z-scores. The Supporting Information contains the examples of motor tracks (Supplementary Figures S1, S2), and primary data (Supplementary Figures S3, S4), and Table 2 provides the results of the two-way ANOVA.

[12] = tested on: human; settings: ref Shiels et al., 2009; cited from earlier work
Excerpt: (§2) Delay discounting tasks are also used to assess impulsive behavior in human studies, giving an insight into causal mechanism of addictions such as substance abuse and gambling ([Reynolds, 2006]; [de Wit, 2009]; [Hodgins and Holub, 2015]), and ADHD ([Barkley et al., 2001]; [Scheres et al., 2008]; [Shiels et al., 2009]). Impulsivity in the human and rodent delay discounting task derives form the similar neural substrates: lower D2/3 receptor availability in ventral striatum of rats and pathological gamblers, individuals with methamphetamine dependence, and alcohol use disorder ([Voon and Dalley, ...

[13] = tested on: animal models; settings: ref Wooters and Bardo, 2011; cited from earlier work
Excerpt: as §2

SMILES: N[C@@H](CCC(=O)O)C(=O)[O-].[Na+] [GluNa]
- agonist effect on Ca2+ (in words) ([1]; GluNa 1 mM vs non-activated cells, peak fluorescence, N = 7 (activated), N = 5 (basal)): enhanced fluorescence peak intensity; also recorded: enhanced Ca^2+ influx

SMILES: Cn1c(=O)c2c(ncn2C)n(C)c1=O [caffeine]
- SLA at night (in words) ([2]; LCGM-10 5 mg/kg intranasal or caffeine 30 mg/kg intraperitoneal, night (19:00–06:59), F2, 20 = 0.6, p = 0.56): no effects of treatment on the nighttime activity
- duration of SLA increase after administration ([2]; LCGM-10 5 mg/kg intranasal, caffeine 30 mg/kg intraperitoneal, 30-min intervals): up to 90 min
- SLA on day 1 (in words) ([2]; caffeine 30 mg/kg intraperitoneal, day 1 (12:00–18:59), N = 7–8): enhanced SLA; also recorded: significant induction of SLA
- SLA on day 2 (in words) ([2]; caffeine 30 mg/kg intraperitoneal, day 2 (07:00–11:59), N = 7–8): hypokinesia; also recorded: significant reduction in SLA
- hypokinetic rebound (in words) ([2]; single administration, LCGM-10 compared with caffeine): followed by a locomotor depression
- duration of SLA increase [3]: up to 3 h
- effect on locomotion (in words) ([4]; caffeine 10 mg/kg): motor-stimulating effects

SMILES: CC(NC(C)(C)C)C(=O)c1cccc(Cl)c1 (stereo not shown) [bupropion]
- effect on locomotion (in words) ([4]; bupropion 30 mg/kg): motor-stimulating effects

SMILES: N=C(N)NC(=O)Cc1c(Cl)cccc1Cl [guanfacine]
- effect size of non-stimulants [5]: ≤ 60%

SMILES: O=C(Nc1ccccc1)C12CC1/C(=N\O)c1ccccc1O2 (single isomer, unassigned; (-)) [(−)-PHCCC]
- reference ligand effect on mGluR4 (in words) [6]: enhanced L-AP4-induced mGluR4 activity
- reference ligand effect on mGluR1 (in words) [7]: inhibited DHPG-induced mGluR1 activity

SMILES: N[C@@H](CCP(=O)(O)O)C(=O)O [L-AP4]
- reference ligand effect on mGluR4 (in words) [6]: induced luciferase signals

SMILES: Cc1nc(C#Cc2cccnc2)cs1 [MTEP]
- PAM activity at mGluR4 (in words) [8]: The effect is not observed

SMILES: Cc1ccc(O)c(N=Nc2ccccc2)n1 [SIB 1757]
- antagonist effect on mGluR5 activity (in words) [9]: inhibited mGluR5 activity
- antagonist effect on mGluR5 activity (in words) ([9]; listed as SIB1757): depleted
- PAM activity at mGluR4 (in words) [8]: The effect is not observed

SMILES: Clc1cccc(Cl)c1N=C1NCCN1 [clonidine]
- effect size of non-stimulants [5]: ≤ 60%

SMILES: N[C@H](C(=O)O)c1cc(O)cc(O)c1 [DHPG]
- reference ligand effect on mGluR1 (in words) [7]: induced luciferase signals

SMILES: Cc1cccc(/C=C/c2ccccc2)n1 [SIB-1893]
- PAM activity at mGluR4 (in words) [8]: able to act as PAMs of mGluR4

SMILES: NC(C(=O)O)c1cc(O)ccc1Cl (racemic) [CHPG]
- agonist effect on luciferase signal (in words) ([9]; CHPG 1 mM): enhanced; also recorded: induced a luciferase signal

SMILES: Cc1cccc(C#Cc2ccccc2)n1 [MPEP, 2-methyl-6-(phenylethynyl) pyridine]
- effect on GluNa-evoked Ca2+ influx (in words) ([1]; vs 1 mM GluNa, Fluo-4 AM, 3 min preincubation 37°C, pH 7.4, peak fluorescence, N = 6): effectively blocked GluNa-evoked calcium oscillations in cells at all tested doses
- concentrations with significant reduction of intracellular Ca2+ levels ([1]; vs activated control (1 mM GluNa), peak fluorescence, q < 0.05, N = 6 each): 0.1 to 100 µM
- PAM activity at mGluR4 (in words) [8]: able to act as PAMs of mGluR4
- effect on locomotion (in words) ([10]; applied to olfactory bulbs, dorsolateral striatum, dorsal hippocampus): stimulatory effect on locomotion
- brain regions without locomotor stimulation (in words) ([10]; local application): not primary motor area and ventral striatum

SMILES: CN1C(=O)CN=C(c2ccccc2)c2cc(Cl)ccc21 [diazepam]
- anxiolytic-like activity (in words) [11]: anxiolytic-like activity

SMILES: CNCC[C@@H](Oc1ccccc1C)c1ccccc1 [atomoxetine]
- effect size of non-stimulants [5]: ≤ 60%

SMILES: COC(=O)C(c1ccccc1)C1CCCCN1 (stereo not shown) [methylphenidate]
- efficient in percent of cases ([5]; ref Bodey, 2011): up to 70%
- discounting of delayed rewards (in words) [12]: reduced discounting of delayed rewards
- discounting of delayed rewards (in words) [13]: reduced discounting of delayed rewards
